Assays:
mAID-EGFP-CENPH = target: T1, mAID-EGFP-CENPH (Oryza sativa subsp. japonica, UniProt Q7XVM8, F74G); test: Western blotting of mAID-EGFP-CENPH degradation in HeLa cell (transposon vector + CRISPR-KO system); format: cell-based, human; settings: anti-CENPH antibody, endogenous CENPH knocked out
T1 construct: P2A linker (self-cleaving; remnant); expressed in transfected cells; host or cells: HeLa
Text: (§1) In this degradation system, (1) a transposon vector in which an OsTIR1(F74G) gene and an mAID-target gene are connected by a P2A linker gene and (2) a CRISPR-KO vector for knocking out an endogenous target gene containing gRNA and a Cas9 gene are contained.
(§2) In this degradation system, the OsTIR1(F74G) gene and the mAID-target gene in a genome are integrated by the transposon vector, and an endogenous target gene is knocked out by the CRISPR-KO vector.
(§3) The transposon vector in which an OsTIR1(F74G) gene and an mAID-EGFP-CENPH or mAID-EGFP-POLD1 target gene were connected by a P2A linker gene was constructed, and this vector was introduced into a HeLa cell together with the CRISPR-KO vector targeting an endogenous CENPH or POLD1 gene. 5-Ph-IAA was added to such a cell, and the degradation of the target protein was confirmed by Western blotting (FIG. 6).

[1] = target: T2, OsTIR1(F74G)/mAID-EGFP-NLS expressing cell (Oryza sativa subsp. japonica, UniProt Q7XVM8, F74G); test: FACS analysis of degradation of mAID-EGFP-NLS after addition of auxin analog; format: cell-based, human; settings: Example 2; 50 nM, 100 nM, 500 nM or 1 μM, 24 hours; compared with OsTIR1(WT) cell plus auxin
T2 construct: expressed in transfected cells; host or cells: HCT116
Experimental: An HCT116 cell (human colon adenocarcinoma-derived cell) having DNA in which an OsTIR1(WT) gene or OsTIR1(F74G) gene and an mAID-EGFP (green fluorescent protein)-NLS (nuclear localization signal) gene were encoded through a P2A sequence inserted onto a chromosome by a transposon (hereinafter, referred to as “OsTIR1(WT)/mAID-EGFP-NLS expressing cell” or “OsTIR1(F74G)/mAID-EGFP-NLS expressing cell”) was prepared (refer to FIG. 1).
The auxin analog (concentration in culture medium: […]) was added to the OsTIR1(F74G)/mAID-EGFP-NLS expressing cell and cultured for 24 hours. In addition, as a control, a cell containing an auxin added to the OsTIR1(WT)/mAID-EGFP-NLS expressing cell was also prepared.
After 24 hours from the addition of the auxin analog, the cells were collected, and FACS analysis was performed.
An HCT116 cell (human colon adenocarcinoma-derived cell) in which a plasmid containing an OsTIR1(WT) gene or OsTIR1(F74G) gene was introduced and an mAID-EGFP (green fluorescent protein)-NLS (nuclear localization signal) gene was inserted onto a chromosome (hereinafter, referred to as “OsTIR1(WT)/mAID-EGFP-NLS expressing cell” or “OsTIR1(F74G)/mAID-EGFP-NLS expressing cell”) was prepared (refer to FIG. 1).
The auxin analog (concentration in culture medium: 0, 50 nM, 100 nM, 500 nM or 1 μM) was added to the OsTIR1(F74G)/mAID-EGFP-NLS expressing cell and cultured for 24 hours. […]

mAID-EGFP-POLD1 = target: T3, mAID-EGFP-POLD1 (Oryza sativa subsp. japonica, UniProt Q7XVM8, F74G); test: Western blotting of mAID-EGFP-POLD1 degradation in HeLa cell (transposon vector + CRISPR-KO system); format: cell-based, human; settings: anti-POLD1 antibody, clones #1 to #3, endogenous POLD1 knocked out
T3 construct: P2A linker (self-cleaving; remnant); expressed in transfected cells; host or cells: HeLa
Text: as §1, §2, §3

mAID-BRD4 xenografts = target: T4, mAID-BRD4 xenografts (Oryza sativa subsp. japonica, UniProt Q7XVM8, F74G); test: mAID-BRD4 cell xenograft tumor growth in nude mice; format: in vivo
T4 construct: expressed in transfected cells; host or cells: HCT116 CMV-OsTIR1(F74G), xenografted into nude mice
Experimental: (§4) Subsequently, mAID-BRD4 cells or TOP2A-mAC cells were subcutaneously transplanted into nude mice and xenograft tumors were formed in 1 week. After that, 0, 1, 3, and 10 mg/kg of 5-Ph-IAA were intraperitoneally administered daily for an additional week (day 7 to day 14). […] It was confirmed that, when the AID2 system is used, mAID-BRD4 and TOP2A-mAC were successfully removed in a living body of mice, causing tumor suppression.
Furthermore, 3 mg/kg of 5-Ph-IAA was orally administered to nude mice in which mAID-BRD4 cells were xenografted. FIG. 13(A) is a diagram showing an oral administration schedule of 5-Ph-IAA.

[2] = tested on: OsTIR1(F74A)/mAID-EGFP-NLS-expressing cells; test: Reversibility of the AID2 system: reporter recovery after removal of 5-Ph-IAA; format: cell-based; settings: medium replaced with medium without 5-Ph-IAA
[3] = tested on: HCT116 cells expressing OsTIR1(F74G); test: Control xenograft of HCT116 cells expressing OsTIR1(F74G) in nude mice; format: in vivo; settings: 1, 3 and 10 mg/kg intraperitoneally daily, day 7 to day 14; control without degron-tagged target
[4] = Toxicity evaluation in mice (body weight); format: in vivo; settings: 1, 3 and 10 mg/kg intraperitoneally daily for 1 week
Experimental: Toxicity was evaluated by intraperitoneally administering 0, 1, 3, and 10 mg/kg of 5-Ph-IAA daily for 1 week. As shown in FIG. 7(B), a change in body weight of the mice which had been subjected to the administration was not observed.

TOP2A-mAC xenografts = target: T5, TOP2A-mAC xenografts (Oryza sativa subsp. japonica, UniProt Q7XVM8, F74G); test: TOP2A-mAC cell xenograft tumor growth in nude mice; format: in vivo; settings: 1, 3 and 10 mg/kg intraperitoneally daily, day 7 to day 14
T5 construct: expressed in transfected cells; host or cells: HCT116 CMV-OsTIR1(F74G), xenografted into nude mice
Experimental: as §4

mAID-EGFP reporters = target: T6, mAID-EGFP reporters (Oryza sativa subsp. japonica, UniProt Q7XVM8, F74G); test: Reporter removal in transgenic mice expressing OsTIR1(F74G) and mAID-EGFP reporter; format: in vivo
T6 construct: expressed in transfected cells; host or cells: transgenic mice (organs and E13.5 embryos)
Experimental: In order to further confirm whether the AID2 system functioned in a living body of mice, an attempt to establish transgenic mice expressing OsTIR1(WT) or OsTIR1(F74G) together with mAID-EGFP reporters was performed. As shown in FIG. 11(A), OsTIR1(WT) was confirmed to cause embryonic lethality. In contrast, the establishment of a plurality of mouse strains expressing OsTIR1(F74G) and reporters was confirmed (refer to FIG. 11(A).
Two adult female transgenic mice from the same TG strain were used to remove reporters in a plurality of organs.
First, as shown in FIG. 11(B), the expression of reporters in the ovaries and fallopian tubes surgically removed from untreated transgenic mice was confirmed.
Subsequently, pseudo-administration is performed on one mouse and 10 mg/kg 5-ph-IAA was intraperitoneally administered to the other mouse. […] The same data was obtained for adult male mice derived from the same TG strain.
Finally, the expression of the reporter in embryos was examined to confirm a rate of removal of a target protein using the AID2 system in vivo. 5 mg/kg of 5-Ph-IAA was intraperitoneally administered to pregnant females with E13.5 embryos. As shown in FIG. 11(D), a reporter signal disappeared within 1 hour after administration and rapid removal of the reporter in vivo was confirmed.

[5] = target: T7, OsTIR1(F74G)/DHC1-mAID-Clover expressing cell (Oryza sativa subsp. japonica, UniProt Q7XVM8, F74G); test: Degradation induction test of DHC1 (microscopy, Western blotting); format: cell-based, human
T7 construct: expressed in transfected cells; host or cells: HCT116 (OsTIR1 at AAVS1 locus; knock-in at the endogenous DHC1 gene)
Text: In the HCT116 cell, an OsTIR1(WT) gene or OsTIR1(F74G) gene was introduced into an AAVS1 gene locus, which is a safe harbor site, using a CRISPR/Cas system, and an OsTIR1(WT)-expressed HCT116 cell or OsTIR1(F74G)-expressed HCT116 cell was constructed.
A plasmid vector having mAID, clover and a neomycin resistance gene and having a homologous sequence with respect to a DHC1 gene so as to sandwich mAID and the neomycin resistance gene was introduced into the OsTIR1(WT)-expressed HCT116 cell or OsTIR1(F74G)-expressed HCT116 cell using a CRISPR/Cas9 system, and homologous recombination with the endogenous DHC1 gene was performed. Next, after selection by G418, the formed colony was dyed using crystal violet. “DHC1” is the abbreviation for dynein heavy chain 1.
A degradation induction test of DHC1 was performed using the HCT116 cell expressing OsTIR1(F74G) on which homologous recombination had been performed in the above-described section 2 (hereinafter, referred to as “OsTIR1(F74G)/DHC1-mAID-Clover expressing cell”).
The compound indicated by the formula (I-2) (also referred to as 5-Ph-IAA) was added to the OsTIR1(F74G)/DHC1-mAID-Clover expressing cell, and the appearance of the cell after 24 hours was observed (FIG. 4(A)).
Furthermore, the degradation of DHC1 was confirmed by Western blotting (FIG. 4(B)).

SMILES: O=C(O)Cc1c[nH]c2ccc(-c3ccccc3)cc12 [5-Ph-IAA, 5-phenyl-indole 3-acetic acid]
- degradation of mAID-EGFP-CENPH by Western blotting (mAID-EGFP-CENPH): degradation of mAID-EGFP-CENPH was confirmed
- degradation of GFP (FACS) at low concentrations [1]: functioned at a considerably low concentration
- degradation of mAID-EGFP-POLD1 by Western blotting (mAID-EGFP-POLD1): degradation of mAID-EGFP-POLD1 was confirmed
- tumor suppression (mAID-BRD4 xenografts; 3 mg/kg orally): significant tumor suppression
- tumor suppression (mAID-BRD4 xenografts; 1, 3 and 10 mg/kg intraperitoneally daily, day 7 to day 14): significant tumor suppression
- time to full restoration of reporter expression after medium replacement [2]: 3 h
- tumor suppression [3]: the tumor suppression was not observed
- change in body weight [4]: not observed
- tumor suppression (TOP2A-mAC xenografts): a similar tendency was observed
- time to disappearance of reporter signal in embryos (mAID-EGFP reporters; 5 mg/kg intraperitoneally to pregnant females with E13.5 embryos): ≤ 1 h
- expression of the reporter in organs (mAID-EGFP reporters; 10 mg/kg intraperitoneally, 6 hours after administration, ovary, fallopian tubes, small intestine, heart, bladder, brain, adult female): significantly reduced
- appearance of the cell (mitotic accumulation) ([5]; 24 hours after addition): accumulation of cells in the mitotic period was observed
- degradation of DHC1-mAID-Clover fused protein (microscopic images) ([5]; 24 hours after addition): degraded a DHC1-mAID-Clover fused protein
- degradation of DHC1 and mAID by Western blotting ([5]; clones #1 to #3): degradation of DHC1 and mAID was confirmed

From patent US12522836B2, “Nonhuman animal and use for same” (Inter-University Research Institute Corporation Research …, priority 2019, dated 2026)
